These results are taken from ChEMBL document CHEMBL1149566, “Himbacine derived thrombin receptor (PAR-1) antagonists: SAR of the pyridine ring” (Bioorg Med Chem Lett, 2007).

Active and inactive are the calls of the source. The rule behind the calls is not given here.

For data set [1], the target named is T1, Proteinase-activated receptor 1 (Homo sapiens, UniProt P25116).
T1 sequence (P25116 whole entry): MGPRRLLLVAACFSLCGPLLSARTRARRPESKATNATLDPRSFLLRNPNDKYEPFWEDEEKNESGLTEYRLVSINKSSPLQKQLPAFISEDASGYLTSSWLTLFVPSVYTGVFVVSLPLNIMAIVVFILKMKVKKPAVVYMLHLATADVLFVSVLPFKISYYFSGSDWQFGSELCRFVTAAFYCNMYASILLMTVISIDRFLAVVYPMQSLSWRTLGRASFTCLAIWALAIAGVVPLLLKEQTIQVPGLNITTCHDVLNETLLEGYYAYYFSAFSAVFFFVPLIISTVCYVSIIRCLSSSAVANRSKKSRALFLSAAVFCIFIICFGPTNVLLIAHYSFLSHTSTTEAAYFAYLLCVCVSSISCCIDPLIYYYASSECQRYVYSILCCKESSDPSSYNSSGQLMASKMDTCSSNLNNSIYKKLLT
Kind of data set: (§1) Displacement of [3H]haTRAP from human PAR1 receptor in platelet membrane. Format: cell membranes. For orientation: Displacement assays read how much labelled ligand stays bound in the presence of the test substance.

The target in data set [2] is T2, Proteinase-activated receptor 1 (Homo sapiens) (UniProt P25116).
T2 sequence (whole entry): T1 sequence (P25116 whole entry)
The data set is described as §1. It is filed as cell membranes.

The target of data set [3] is T2, Proteinase-activated receptor 1 (Homo sapiens). Put plainly: Displacement of [3H]haTRAP from human PAR1 receptor in platelet membrane at 1 uM. It is filed as cell membranes.
The nature of data set [4]: AUC (0 to 4 hrs) in rat. Format: ADME, organism-based. Also noted: time < 4 hr; concentration or dose not given beside the values. Conditions: plasma.
Data set [5] is described as follows: Cmax in rat. It is filed as ADME, organism-based. To be noted: in vivo.
Data set [6] concerns Cynomolgus monkey. Kind of data set: Ex vivo inhibition of platelet aggregation in cynomolgus monkey at 3 mg/kg after 6 hrs. It is filed as functional. Conditions: Macaca fascicularis.
The target in the next data set is Cannabinoid receptor 2 (Homo sapiens, UniProt P34972). Put plainly: Binding affinity to cannabinoid CB2 receptor.
For data set [7], the system named is Cynomolgus monkey. Put plainly: Ex vivo inhibition of platelet aggregation in cynomolgus monkey at 3 mg/kg up to 4 hrs. It is filed as functional, organism-based. Further details: dose 3 mg/kg. To be noted: Macaca fascicularis.

Sequence of Cannabinoid receptor 2 (P34972 whole entry): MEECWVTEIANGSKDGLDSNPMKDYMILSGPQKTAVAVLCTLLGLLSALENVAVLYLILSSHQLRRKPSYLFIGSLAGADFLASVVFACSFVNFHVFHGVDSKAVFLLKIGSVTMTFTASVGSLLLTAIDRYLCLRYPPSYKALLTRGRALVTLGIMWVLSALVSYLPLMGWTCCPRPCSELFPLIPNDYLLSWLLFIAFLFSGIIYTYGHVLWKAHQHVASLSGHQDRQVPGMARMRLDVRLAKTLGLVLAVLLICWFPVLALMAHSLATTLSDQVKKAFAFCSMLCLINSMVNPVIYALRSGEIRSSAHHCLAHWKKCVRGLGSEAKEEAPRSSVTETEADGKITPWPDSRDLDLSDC

With `C[C@H]1OC(=O)[C@@H]2C[C@@H]3CCCC[C@H]3[C@H](/C=C/c3ccc(-c4ccco4)cn3)[C@H]12` (racemic), in data set [1], the IC50 (usually the midpoint of a concentration-inhibition curve) was determined as 12 nM.

Turning to `Cc1cccc(/C=C/[C@@H]2[C@@H]3[C@@H](C)OC(=O)[C@@H]3C=C3CCCC[C@H]32)c1`, the outcome in data set [2] was inactive.

Consider `C[C@H]1OC(=O)[C@@H]2C[C@@H]3CCCC[C@H]3[C@H](/C=C/c3ccc(N4CCN(C)CC4)cn3)[C@H]12`, for which, in data set [3], the inhibition (as a rule, the percentage by which the read-out fell short of the control) came out at 12%.

For `C[C@H]1OC(=O)[C@@H]2C[C@@H]3CCCC[C@H]3[C@H](/C=C/c3ccc(-c4ccc(Cl)s4)cn3)[C@H]12` (racemic), in data set [4], the AUC(0-t) (in general, the area under the concentration-time curve up to a stated or last time point) at 4 h is 1060 ng·h/mL. The highest concentration (Cmax) (as a rule, the highest concentration seen after dosing) in data set [5] turned out to be 343 ng/mL. This molecule also returned an IC50 in data set [1] of 36 nM.

In data set [3], `C[C@H]1OC(=O)[C@@H]2C=C3CCCC[C@H]3[C@H](/C=C/c3cnccn3)[C@H]12` came in with an inhibition of 1%.

For the molecule `C[C@H]1OC(=O)[C@@H]2C[C@@H]3CCCC[C@H]3[C@H](/C=C/c3ccc(N4CCOCC4)cn3)[C@H]12`, the IC50 in data set [1] was determined as 440 nM.

On to `C[C@H]1OC(=O)[C@@H]2C=C3CCCC[C@H]3[C@H](/C=C/c3cncnc3)[C@H]12`, for which, in data set [3], the inhibition was 5%.

Turning to `C[C@H]1OC(=O)[C@@H]2C[C@@H]3CCCC[C@H]3[C@H](/C=C/c3ccc(-c4cccc(C(F)(F)F)c4)cn3)[C@H]12`, in data set [4], the AUC(0-t) at 4 h turned out to be 3010 ng·h/mL. The highest level in data set [5] (Cmax) was 1130 ng/mL. The result with Cynomolgus monkey [6] was Active.

As for `C[C@H]1OC(=O)[C@@H]2C[C@@H]3CCCC[C@H]3[C@H](/C=C/c3ccc(N4CCN(c5ccccc5)CC4)cn3)[C@H]12`, the IC50 in data set [1] was 3300 nM.

`C[C@H]1OC(=O)[C@@H]2C[C@@H]3CCCC[C@H]3[C@H](/C=C/c3ccc(C4CCCC4)cn3)[C@H]12` returned an IC50 in data set [1] of 115 nM.

In data set [1], `C[C@H]1OC(=O)[C@@H]2C=C3CCCC[C@H]3[C@H](/C=C/c3ccc(-c4ccccc4)cn3)[C@H]12` registered an IC50 of 43 nM.

In data set [1], `Cc1nc(/C=C/[C@@H]2[C@@H]3[C@@H](C)OC(=O)[C@@H]3C=C3CCCC[C@H]32)ccc1-c1ccccc1` showed an IC50 of 130 nM.

On to `C[C@H]1OC(=O)[C@@H]2C[C@@H]3CCCC[C@H]3[C@H](/C=C/c3ccc(-c4cccs4)cn3)[C@H]12` (racemic), for which the AUC(0-t) at 4 h in data set [4] stood at 160 ng·h/mL. For the same molecule, the Cmax in data set [5] came to 109 ng/mL. The IC50 in data set [1] is 16 nM.

Take `C[C@H]1OC(=O)[C@@H]2C[C@@H]3CCCC[C@H]3[C@H](/C=C/c3ccc(-c4ccsc4)cn3)[C@H]12` (racemic): the AUC(0-t) at 4 h in data set [4] came to 434 ng·h/mL. For the same molecule, the Cmax in data set [5] was 461 ng/mL. The molecule also registered an IC50 in data set [1] of 11 nM.

In turn, `C[C@H]1OC(=O)[C@@H]2C=C3CCCC[C@H]3[C@H](/C=C/c3cnc4ccccc4c3)[C@H]12` returned an inhibition in data set [3] of 45%.

Molecule `CCc1nc(/C=C/[C@@H]2[C@@H]3[C@@H](C)OC(=O)[C@@H]3C=C3CCCC[C@H]32)ccc1-c1ccccc1` came in with a half-maximal inhibitory concentration (IC50) in data set [1] of 285 nM.

Take `C[C@H]1OC(=O)[C@@H]2C[C@@H]3CCCC[C@H]3[C@H](/C=C/c3ccc(N4CCCC4)cn3)[C@H]12`: the Ki (as a rule, a dissociation constant, usually derived from enzyme kinetics or from competition with a known ligand) at Cannabinoid receptor 2 is 0.487 µM. In data set [1], this molecule returned an IC50 of 29 nM.

On to `C[C@H]1OC(=O)[C@@H]2C=C3CCCC[C@H]3[C@H](/C=C/c3cccnc3)[C@H]12`, for which the inhibition in data set [3] came to 11%.

As to `C[C@H]1OC(=O)[C@@H]2C[C@@H]3CCCC[C@H]3[C@H](/C=C/c3ccc(-c4cnccn4)cn3)[C@H]12`, the IC50 in data set [1] amounted to 88 nM.

As for `C[C@H]1OC(=O)[C@@H]2C=C3CCCC[C@H]3[C@H](/C=C/c3ccccc3)[C@H]12`, the outcome in data set [2] was inactive. This molecule gave an inhibition in data set [3] of 2%.

As to `C[C@H]1OC(=O)[C@@H]2C[C@@H]3CCCC[C@H]3[C@H](/C=C/c3ccc(-c4ccc[n+]([O-])c4)cn3)[C@H]12`, the IC50 in data set [1] is 207 nM.

Consider `CCc1ccc(/C=C/[C@H]2[C@@H]3CCCC[C@H]3C[C@H]3C(=O)O[C@H](C)[C@@H]23)nc1`, for which the IC50 in data set [1] came to 263 nM.

As to `C[C@H]1OC(=O)[C@@H]2C[C@@H]3CCCC[C@H]3[C@H](/C=C/c3ccc(-c4cccnc4)cn3)[C@H]12`, the Ki at Cannabinoid receptor 2 was 13 µM. Besides, in the data set with Cynomolgus monkey [7], the result was Active. In data set [4], this molecule showed an AUC(0-t) at 4 h of 4230 ng·h/mL. The same molecule showed a Cmax in data set [5] of 1820 ng/mL. Also, the IC50 in data set [1] came out at 22 nM. The inhibition in vivo – broadly, how much of the control response was suppressed – at 3 mg/kg in the data set with Cynomolgus monkey [6] was determined as 70%.

Regarding `C[C@H]1OC(=O)[C@@H]2C[C@@H]3CCCC[C@H]3[C@H](/C=C/c3ccc(-c4cncn4C)cn3)[C@H]12`, the IC50 in data set [1] was found to be 145 nM.

In data set [4], `C[C@H]1OC(=O)[C@@H]2C[C@@H]3CCCC[C@H]3[C@H](/C=C/c3ccc(-c4ccccn4)cn3)[C@H]12` displayed an AUC(0-t) at 4 h of 509 ng·h/mL. For the same molecule, in data set [5], the Cmax was 251 ng/mL. The molecule also returned an IC50 in data set [1] of 22 nM.

In turn, `C[C@H]1OC(=O)[C@@H]2C[C@@H]3CCCC[C@H]3[C@H](/C=C/c3ccc(-c4ncc[nH]4)cn3)[C@H]12` displayed an IC50 in data set [1] of 1320 nM.

Consider `C[C@H]1OC(=O)[C@@H]2C=C3CCCC[C@H]3[C@H](/C=C/c3ccccn3)[C@H]12`, for which the IC50 in data set [1] was found to be 3600 nM. For the same molecule, the inhibition in data set [3] came to 16%.

In the case of `C[C@H]1OC(=O)[C@@H]2C[C@@H]3CCCC[C@H]3[C@H](/C=C/c3ccc(-c4ccncc4)cn3)[C@H]12`, the IC50 in data set [1] came out at 2140 nM.

For `C[C@H]1OC(=O)[C@@H]2C[C@@H]3CCCC[C@H]3[C@H](/C=C/c3ccc(-c4ccccc4)cn3)[C@H]12`, the AUC(0-t) at 4 h in data set [4] amounted to 451 ng·h/mL. Also, the Cmax in data set [5] was 223 ng/mL.

`Cc1cccc(/C=C/[C@@H]2[C@@H]3[C@@H](C)OC(=O)[C@@H]3C=C3CCCC[C@H]32)n1`: the IC50 in data set [1] was 350 nM.

With `C[C@H]1OC(=O)[C@@H]2C[C@@H]3CCCC[C@H]3[C@H](/C=C/c3ccc(-c4nccs4)cn3)[C@H]12`, in data set [1], the IC50 was found to be 47 nM.

With `C[C@H]1OC(=O)[C@@H]2C=C3CCCC[C@H]3[C@H](/C=C/c3nc4ccccc4o3)[C@H]12`, the inhibition in data set [3] is 38%.

For `C[C@H]1OC(=O)[C@@H]2C=C3CCCC[C@H]3[C@H](/C=C/c3nccs3)[C@H]12`, the inhibition in data set [3] was 14%.
